Series [1] deals with animals. Nature of the series: Feed supplementation for improving the fertility of animals (titration of the substance into the feed). It is filed as in vivo. The source says: It was found in our studies that phytohormones and beta-glucans appeared to work in a wide range of concentrations for improving the fertility of animals. The optimal concentrations may vary between different species, however, the skilled person will know how to obtain an optimal concentration for a given species, for instance by titration of the desired compound into the animal feed and testing when this would have the optimal effect. The following may serve as guidance in this process. A skilled person will appreciate that the amount of free IAA in the ready to use feed has to be adjusted in order to supply the animal with an effective amount of free IAA. In order to adjust the free IAA concentration in the feed so that a certain daily intake of free IAA is achieved, an estimate has to be made of the feed intake of an animal or animal group. A skilled person is aware of the feed intake of a particular (kind or group of) animal(s). Typically, the feed intake per day is between 0.5 and 10% of the body weight of the animal, with occasional exceptions as high as 20%. Elderly animals tend to eat less and are considered to have a feed intake per day between 0.1 and 5%, typically of 1% of their body mass. […] A particularly good source of such 1,3 and 1,6 beta glucans may be found in preparations of Agaricus blazei murill (ABM) or yeast cell walls. […] This corresponds to approximately 0.1 to 100 mg/kglw/day of 1,3 and 1,6 beta glucans. […] The effect of improving the fertility of animals was also observed when the feed of animals was supplemented with Gibberelin or Gibberellic acid.

Series [2] has as its system humans. Conditions: single doses of 0.1 g/kg body weight; cited from earlier work.

Turning to `C=C1C[C@]23C[C@@]1(O)CC[C@H]2[C@@]12C=C[C@H](O)[C@@](C)(C(=O)O1)[C@H]2[C@@H]3C(=O)O` [Gibberellic acid], the fertility of animals entry in series [1] (between 0.01 and 0.1 mg/kglw/day, such as 0.04 mg/kglw/day) is reported as “Optimal results”; in series [1] (range of 0.004 and 0.4 mg/kglw/day), “particularly pronounced”.
With `O=C(O)Cc1c[nH]c2ccccc12` [free IAA, indole-3-acetic acid], the fertility of animals result was “Particularly good results” in series [1] (feed supplemented with free IAA instead of conjugated IAA); “very effective” in series [1] (feeding with 0.4 mg/kglw/day); “improved” in series [1] (provided in feed in the range of 0.004 and 40 mg/kglw/day). Further, in series [2], the “toxicity of single doses” value is on record as “non-toxic”.
As to 1,3 and 1,6 beta glucans, the fertility of animals result in series [1] (fed with 1 to 10 mg/kglw/day) was “Excellent results”.

The values are drawn from patent US8084440B2, “Method for improving the fertility of animals” (Desol B.V., priority 2005, dated 2011).
